# Measurements taken from ChEMBL document CHEMBL1132006, “Synthesis and biological evaluation of coumarincarboxylic acids as inhibitors of gyrase B. L-rhamnose as an effective substitute for L-noviose” (1999).
# Experiments:
# Staphylococcus aureus [1] = experiment: In vitro antibacterial activity against Staphylococcus aureus 011HT3 strain; assay type: functional
# Staphylococcus aureus [2] = experiment: In vitro antibacterial activity against Staphylococcus aureus 011HT1 Nov-R strain; assay type: functional
# Staphylococcus aureus [3] = experiment: In vitro antibacterial activity against Staphylococcus aureus 011GO76 OfloOxaEry-R strain; assay type: functional
# Enterococcus faecium = experiment: In vitro antibacterial activity against Enterococcus faecium 02D31P2 VanTeiEry-R strain; assay type: functional
# [4] = tested on: Staphylococcus epidermidis; experiment: In vitro antibacterial activity against Staphylococcus epidermidis 012GO39 OxaTei-R strain; assay type: functional
# Streptococcus pyogenes = experiment: In vitro antibacterial activity against Streptococcus pyogenes O2A1UC1 strain
MIC (Staphylococcus aureus [1]) [µg/mL],MIC (Staphylococcus aureus [2]) [µg/mL],MIC (Staphylococcus aureus [3]) [µg/mL],MIC (Enterococcus faecium) [µg/mL],MIC [4] [µg/mL],MIC (Streptococcus pyogenes) [µg/mL],SMILES
< 0.04,2.5,0.15,0.3,< 0.04,< 0.04,CCCCCc1cc(O[C@@H]2OC(C)(C)[C@H](OC)[C@@H](OC(=O)c3ccc(C)[nH]3)[C@H]2O)c(C)c2oc(=O)c(C(=O)O)cc12
0.6,20,2.5,2.5,0.6,1.2,CCCCCc1cc(O[C@@H]2O[C@@H](C)[C@H](OC)[C@@H](OC(=O)c3ccc(C)[nH]3)[C@H]2O)c(C)c2oc(=O)c(C(=O)O)cc12
> 40,> 40,> 40,> 40,> 40,40,CO[C@@H]1[C@@H](OC(=O)c2ccc(C)[nH]2)[C@@H](O)[C@H](Oc2ccc3c(C)c(CC(=O)O)c(=O)oc3c2C)O[C@H]1C
> 40,> 40,> 40,> 40,> 40,> 40,CO[C@@H]1[C@@H](OC(=O)c2ccc(C)[nH]2)[C@@H](O)[C@H](Oc2ccc3c(C(=O)O)cc(=O)oc3c2C)O[C@H]1C
0.08,> 40,5,> 40,40,0.3,CCCCCCCCCCCCc1cc(O[C@@H]2O[C@@H](C)[C@H](OC)[C@@H](OC(=O)c3ccc(C)[nH]3)[C@H]2O)c(C)c2oc(=O)c(C(=O)O)cc12
2.5,> 40,5,20,2.5,5,CO[C@@H]1[C@@H](OC(=O)c2ccc(C)[nH]2)[C@@H](O)[C@H](Oc2cc(Cc3ccccc3)c3cc(C(=O)O)c(=O)oc3c2C)O[C@H]1C
0.15,2.5,0.6,2.5,0.6,0.3,CCCCCCCc1cc(O[C@@H]2O[C@@H](C)[C@H](OC)[C@@H](OC(=O)c3ccc(C)[nH]3)[C@H]2O)c(C)c2oc(=O)c(C(=O)NS(=O)(=O)c3ccccc3)cc12
2.5,> 40,5,> 40,2.5,10,CO[C@@H]1[C@@H](OC(=O)c2ccc(C)[nH]2)[C@@H](O)[C@H](Oc2ccc3c(CC(=O)O)cc(=O)oc3c2C)OC1(C)C
> 40,> 40,> 40,> 40,> 40,40,CO[C@@H]1[C@@H](OC(=O)c2ccc(C)[nH]2)[C@@H](O)[C@H](Oc2ccc3cc(C(=O)O)c(=O)oc3c2C)O[C@H]1C
10,> 40,40,> 40,10,> 40,CO[C@@H]1[C@@H](OC(=O)c2ccc(C)[nH]2)[C@@H](O)[C@H](Oc2ccc3c(CC(=O)O)cc(=O)oc3c2C)O[C@H]1C
0.08,5,0.3,0.6,0.3,0.3,CCCCCCCc1cc(O[C@@H]2O[C@@H](C)[C@H](OC)[C@@H](OC(=O)c3ccc(C)[nH]3)[C@H]2O)c(C)c2oc(=O)c(C(=O)O)cc12
> 40,> 40,> 40,> 40,> 40,40,CO[C@@H]1[C@@H](OC(=O)c2ccc(C)[nH]2)[C@@H](O)[C@H](Oc2ccc3c(C)c(CCC(=O)O)c(=O)oc3c2C)O[C@H]1C
> 40,> 40,> 40,> 40,> 40,> 40,COC(=O)Cc1cc(=O)oc2cc(O[C@@H]3O[C@@H](C)[C@H](OC)[C@@H](OC(=O)c4ccc(C)[nH]4)[C@H]3O)ccc12
> 40,> 40,> 40,> 40,> 40,> 40,CO[C@@H]1[C@@H](OC(=O)c2ccc(C)[nH]2)[C@@H](O)[C@H](Oc2ccc3c(CC(=O)O)cc(=O)oc3c2)O[C@H]1C
10,> 40,40,> 40,10,> 40,CCCc1cc(O[C@@H]2O[C@@H](C)[C@H](OC)[C@@H](OC(=O)c3ccc(C)[nH]3)[C@H]2O)c(C)c2oc(=O)c(C(=O)O)cc12

SMILES,MIC (Staphylococcus aureus [1]) [µg/mL],MIC (Staphylococcus aureus [2]) [µg/mL],MIC (Staphylococcus aureus [3]) [µg/mL],MIC (Enterococcus faecium) [µg/mL],MIC [4] [µg/mL],MIC (Streptococcus pyogenes) [µg/mL]
CO[C@@H]1[C@@H](OC(N)=O)[C@@H](O)[C@H](Oc2ccc3c(O)c(NC(=O)c4ccc(O)c(CC=C(C)C)c4)c(=O)oc3c2C)OC1(C)C [NOVOBIOCIN],< 0.04,20,< 0.04,0.3,0.08,0.15
CO[C@@H]1[C@@H](OC(=O)c2ccc(C)[nH]2)[C@@H](O)[C@H](Oc2ccc3c(O)c(NC(=O)c4ccc(O)c(CC=C(C)C)c4)c(=O)oc3c2Cl)OC1(C)C [CHLOROBIOCIN],< 0.04,0.15,< 0.04,–,< 0.04,< 0.04
